Source: US6936597B2, “Prodrugs of anticancer agents employing substituted aromatic acids” (priority 2001, dated 2005)

What was measured:
[1] = Half-life in rat plasma, measured by disappearance of PEG derivatives; format: in vitro ADME; conditions: 37° C., in duplicate, SD ±10%
[2] = system: P388/O (murine lymphoid neoplasm) cell line; test: In vitro bioassay, cell growth by Alamar Blue; format: cell-based; conditions: P388/O cells, three days, 37° C., in duplicate, SD ±10%
Method: A series of in vitro assays were conducted to determine the IC50 for unmodified Ara-C and compound 10 using the P388/O (murine lymphoid neoplasm, Southern Research Institute) cell line. The P388/0 cells were grown in RPMI 1640 medium (Whittaker Bioproducts, Walkersville, Md.)+10% FBS (Hyclone Inc., Logan Utah). Bioassays were performed in their respective media containing antibiotics and fungizone.
Ara-C was dissolved in DMSO and diluted to the appropriate concentration in culture media. The individual PEG-Ara-C compound was dissolved in water and diluted to the appropriate concentrations in culture media.
The assays were performed in duplicate in 96-well microtiter cell culture plates. Two fold serial dilution of the compounds were done in the microtiter plates. Cells were detached by incubating with 0.1% Trypsin/Versene at 37°. Trypsin was inactivated by adding the appropriate media for each cell line containing 10% FBS. To each well of the microtiter plates, 10,000 cells were added. After three days, cell growth was measured by addition of a metabolic indicator dye, Alamar Blue, according to the manufacturer's protocol. The IC50 value for the test compound and reference compound are provided above in the Table.

[3] = system: LX-1 (solid human lung Tumor); test: LX-1 tumor xenograft in athymic nude mice; format: in vivo; conditions: when control median tumor volume reached 1000 mm^3
Method: All PEG conjugated compounds were dissolved (˜15 mg/mL) in sterile saline (0.9%) for injection prior to in vivo drug treatments and were given as their ara-C equivalents (absolute amount of ara-C given).
Athymic nude mice were implanted subcutaneous with a 4-5 mm^3 tissue fragment of LX-1 (solid human lung Tumor) collected from donor mice. The tumor trocar site was observed twice weekly and measured once palpable. The tumor volume for each mouse was determined by measuring two dimensions with calipers and calculated using the formula: tumor volume=(length×width^2)/2. […] The mice were sorted to evenly distribute tumor size, grouped into 4 to 6 mice/group, and ear punched for permanent identification. Drugs were administered intravenously q3d×4 (Day 1, 4, 7 and 10) via the tail vein at an approximate rate of 0.5 mL per minute.

PEG ara-C 4-aminomethylbenzenamide [Compound 6a]
t1/2 (h) Rat Plasma [1]: 65 h | IC50 [2]: 122 nM

Nc1ccn([C@@H]2O[C@H](CO)[C@@H](O)[C@@H]2O)c(=O)n1 [Ara-C, cytosine arabinoside, reference compound]
IC50 [2]: 10 nM | % Tumor Growth Inhibition ([3]; 100 mg/kg i.v. q3d×4, LX-1 in nude mice): 26.2%

PEG ara-C 4-aminobenzenamide [Compound 6b]
t1/2 (h) Rat Plasma [1]: 75 h | IC50 [2]: 1190 nM | % Tumor Growth Inhibition ([3]; 20 mg/kg (ara-C equivalents) i.v. q3d×4, LX-1 in nude mice): 12.3%
